One data set can be described thus: water solubility. It counts as physicochemical. To be noted: for solubility (in words): in water; for solubility: water. An excerpt: The configuration of the α-amino acid moiety may be arbitrary. The type of amino acid residue influences to a degree the solubility of the compound of the invention in water. For example, […]
Data set [1] can be described thus: viscosity of aqueous preparations (Table 1). It counts as physicochemical. The text has this:
The derivatives of compounds (I) of the invention which show a good solubility in water generally show viscosity values which, as can be expected, are dependent from the number and position of the hydroxy groups, as well as from the configuration of the amino acid residue. Representative compounds of the invention are shown in the Table 1, with their viscosity values.
Viscosity data in dependency from the type of amino acid and
the concentration of the preparation.

The nature of data set [2]: heat stability of a 67,9% aq. solution at different temperatures and times (Table 2). It counts as physicochemical. An excerpt:
Behaviour of a 67,9% aq. solution of (II) at different temperatures

Data set [3] can be described thus: LD50 in mouse, i.v. (Table 3). It counts as in vivo. To be noted: in vivo, iv, 14 days after application, solution with 300 mg J/ml. Here is the method: (§1) LD50 in mouse, i.v. (14 days after application) of solution
(§2) with a content of 300 mg J/ml.

The next data set relates to mouse. Nature of the data set: LD50 in mouse, i.v. (Table 3). It counts as in vivo. On the procedure: as §1, §2

With `CC(=O)Nc1c(I)c(NC(C)=O)c(I)c(C(=O)N(C)CC(=O)N(C)C[C@H](O)[C@@H](O)[C@H](O)[C@H](O)CO)c1I` [II, N,N-[(3,5-diacetamido-2,4,6-triiodobenzoyl)-sarcosine]-N-methyl glucamide], the “solubility (in words)” value in the data set “water solubility” was “superior in respect to solubility”. Besides, the solubility in “water solubility” (very soluble) was > 1000 mg/mL. For the same compound, the Viscosity is reported as 2.16 cP in data set [1] (20° C., 100 mg J/ml); 3.50 cP in data set [1] (20° C., 150 mg J/ml); 5.74 cP in data set [1] (20° C., 200 mg J/ml); 10.84 cP in data set [1] (20° C., 250 mg J/ml); 18.88 cP in data set [1] (20° C., 300 mg J/ml); 1.48 cP in data set [1] (37° C., 100 mg J/ml). For the same compound, the Viscosity in data set [1] (37° C., 150 mg J/ml) is listed as 2.22 cP; in data set [1] (37° C., 200 mg J/ml), 3.32 cP; in data set [1] (37° C., 250 mg J/ml), 6.20 cP; in data set [1] (37° C., 300 mg J/ml), 9.22 cP. Besides, the Color entry in data set [2] (30 min, 110 °C.) is given as “colorless”; in data set [2] (30 min, 120 °C.), “colorless”; in data set [2] (60 min, 110 °C.), “colorless”; in data set [2] (base solution), “colorless”. The Iodide is listed as 2.63 mg J/100 ml in data set [2] (30 min, 110 °C.); 3.73 mg J/100 ml in data set [2] (30 min, 120 °C.); 3.72 mg J/100 ml in data set [2] (60 min, 110 °C.); 1.78 mg J/100 ml in data set [2] (base solution). The pH in data set [2] (30 min, 110 °C.) was 7.85; in data set [2] (30 min, 120 °C.) it was 7.80; in data set [2] (60 min, 110 °C.) it was 7.75; in data set [2] (base solution) it was 7.85. In data set [3], this compound returned an LD50 at 336 h of 36000 mg/kg. Further, the “toxicity (in words)” value with mouse (in vivo) was “low toxicity”.
With `CC(=O)Nc1c(I)c(NC(C)=O)c(I)c(C(=O)NCCC(=O)N(C)C[C@H](O)[C@@H](O)[C@H](O)[C@H](O)CO)c1I` [IV, N,N-[(3,5-diacetamido-2,4,6-triiodobenzoyl)-β-alanine]-N-methyl glucamide], the solubility in “water solubility” (moderately soluble) is ≤ 200 mg/mL.
As to `CC(=O)Nc1c(I)c(NC(C)=O)c(I)c(C(=O)N[C@@H](C)C(=O)N(C)C[C@H](O)[C@@H](O)[C@H](O)[C@H](O)CO)c1I` [III, N,N-[(3,5-diacetamido-2,4,6-triiodobenzoyl)-L-alanine]-N-methyl glucamide], the solubility in the data set “water solubility” (soluble) was ≤ 500 mg/mL.
With `CC(=O)Nc1c(I)c(NC(C)=O)c(I)c(C(=O)N[C@@H](CC(=O)N(C)C[C@H](O)[C@@H](O)[C@H](O)[C@H](O)CO)C(=O)N(C)C[C@H](O)[C@@H](O)[C@H](O)[C@H](O)CO)c1I` [IX, N,N-[(3,5-diacetamido-2,4,6-triiodobenzoyl)-L-aspartic acid]-bis-N-methyl glucamide], the “solubility (in words)” value in “water solubility” is on record as “superior in respect to solubility”. In addition, the solubility in “water solubility” (very soluble) is > 1000 mg/mL. The Viscosity is on record as 2.90 cP in data set [1] (20° C., 100 mg J/ml); 5.15 cP in data set [1] (20° C., 150 mg J/ml); 11.14 cP in data set [1] (20° C., 200 mg J/ml); 33.58 cP in data set [1] (20° C., 250 mg J/ml); 88.85 cP in data set [1] (20° C., 300 mg J/ml); 1.84 cP in data set [1] (37° C., 100 mg J/ml). Also, the Viscosity worked out at 3.04 cP in data set [1] (37° C., 150 mg J/ml); 6.06 cP in data set [1] (37° C., 200 mg J/ml); 15.96 cP in data set [1] (37° C., 250 mg J/ml); 35.41 cP in data set [1] (37° C., 300 mg J/ml).
On to `CC(=O)Nc1c(I)c(NC(C)=O)c(I)c(C(=O)NCCCC[C@H](NC(=O)C(C)O)C(=O)N(C)C[C@H](O)[C@@H](O)[C@H](O)[C@H](O)CO)c1I` (stereo partly drawn) [XII, N,N-[α-lactyl-ε-(3,5-diacetamido-2,4,6-triiodobenzoyl)-L-lysine]-N-methyl glucamide], for which the solubility in the data set “water solubility” (moderately soluble) is ≤ 200 mg/mL.
As for `CC(=O)Nc1c(I)c(NC(C)=O)c(I)c(C(=O)O)c1I` [sodium-meglumine-diatrizoate, reference compound], in data set [3], the LD50 at 336 h lay in the range of 12000 to 14000 mg/kg.
As for `CC(=O)Nc1c(I)c(NC(C)=O)c(I)c(C(=O)N[C@@H](CO)C(=O)N(C)C[C@H](O)[C@@H](O)[C@H](O)[C@H](O)CO)c1I` [VIII, N,N-[(3,5-diacetamido-2,4,6-triiodobenzoyl)-L-serine]-N-methyl glucamide], the solubility in “water solubility” (soluble) was ≤ 500 mg/mL. For the same compound, the Viscosity in data set [1] (20° C., 100 mg J/ml) was 2.13 cP; in data set [1] (20° C., 150 mg J/ml), 3.11 cP; in data set [1] (20° C., 200 mg J/ml) it was 5.15 cP; in data set [1] (20° C., 250 mg J/ml), 9.43 cP; in data set [1] (20° C., 300 mg J/ml) it was 20.05 cP; in data set [1] (37° C., 100 mg J/ml), 1.84 cP. In addition, the Viscosity in data set [1] (37° C., 150 mg J/ml) was 1.95 cP; in data set [1] (37° C., 200 mg J/ml) it was 3.04 cP; in data set [1] (37° C., 250 mg J/ml), 5.16 cP; in data set [1] (37° C., 300 mg J/ml), 9.71 cP.
Take `CC(=O)Nc1c(I)c(NC(C)=O)c(I)c(C(=O)N[C@@H](CCC(=O)N(C)C[C@H](O)[C@@H](O)[C@H](O)[C@H](O)CO)C(=O)N(C)C[C@H](O)[C@@H](O)[C@H](O)[C@H](O)CO)c1I` [XI, N,N-[(3,5-diacetamido-2,4,6-triiodobenzoyl)-L-glutamic acid]-bis-N-methyl glucamide]: the “solubility (in words)” value in the data set “water solubility” is reported as “superior in respect to solubility”. In addition, the solubility in “water solubility” (moderately soluble) is ≤ 200 mg/mL; in “water solubility” (very soluble), > 1000 mg/mL.
With `CC(=O)Nc1c(I)c(NC(C)=O)c(I)c(C(=O)NC(CC(=O)N(C)C[C@H](O)[C@@H](O)[C@H](O)[C@H](O)CO)C(=O)N(C)C[C@H](O)[C@@H](O)[C@H](O)[C@H](O)CO)c1I` (mixture of isomers) [X, N,N-[(3,5-diacetamido-2,4,6-triiodobenzoyl)-DL-aspartic acid]-bis-N-methyl glucamide], the “solubility (in words)” value in “water solubility” is given as “superior in respect to solubility”. In the data set “water solubility” (very soluble), the solubility is > 1000 mg/mL. Also, the Viscosity is listed as 10.65 cP in data set [1] (20° C., 200 mg J/ml); 25.38 cP in data set [1] (20° C., 250 mg J/ml); 5.84 cP in data set [1] (37° C., 200 mg J/ml); 12.23 cP in data set [1] (37° C., 250 mg J/ml).
Consider `CC(=O)Nc1c(I)c(NC(C)=O)c(I)c(C(=O)O)c1I` [lysine-diatrizoate, reference compound], for which the LD50 in the data set with mouse (i.v., 14 days after application, solution with 300 mg J/ml, 20160 min) was 14000 to 18000 mg/kg.
Consider `CC(=O)Nc1c(I)c(NC(C)=O)c(I)c(C(=O)NCCCC(=O)N(C)C[C@H](O)[C@@H](O)[C@H](O)[C@H](O)CO)c1I` [V, N,N-[(3,5-diacetamido-2,4,6-triiodobenzoyl)-γ-aminobutyric acid]-N-methyl glucamide], for which the solubility in the data set “water solubility” (moderately soluble) is ≤ 200 mg/mL.

The values above are taken from US4607123A, “Water soluble 3,5-diacetamido-2,4,6-triiodobenzoic acid derivatives” (Dr. Franz Kohler Chemie GmbH, priority 1984, dated 1986).
